Measurements published in patent publication US11969428B2, “Methods and pharmaceutical compositions for treating lymphoid malignancy” (priority 2011, dated 2024).

Tested on: Akt/PKB phosphorylation
Assay: TCR-induced Akt/PKB phosphorylation in thymocytes (Western blot)
Format: cell-based, mouse
Settings: thymocytes from 6 week old wild type animals
Experimental: Cell lysates (from cell lines or thymocytes) were prepared on ice in M-PER Mammalian Protein Extraction reagent (Pierce) containing a cocktail of protease and phosphatase inhibitors (Swat et al., 2006). Equal amounts of total protein from lysates were subjected to SDS-PAGE, transferred to PVDF membrane (Immobilon-P, Millipore), and membranes probed by overnight incubation with appropriate primary antibodies. Bound antibodies were visualized with HRP-conjugated secondary antibodies and ECL chemistry (SuperPico West, Pierce).
To assess the requirement for p110δ in TCR-induced phosphorylation of Akt/PBK, single-cell suspensions of thymocytes (1×10^8/mL) from PI3Kγ-deficient animals were incubated with the p110δ-specific inhibitor IC87114 (10 μM) or with vehicle control (DMSO) for 30 minutes before TCR cross-linking, as described for the Ca^2+ flux assay. Aliquots (100 μL) were collected at 0, 10, 30, and 60 minutes after TCR cross-linking, briefly centrifuged to pellet, and subsequently lysed with ice-cold M-Per (Pierce, Rockford, IL) (according to the manufacturer's recommendations) that contained a cocktail of phosphatase and protease inhibitors (Puri et al., 2005). Lysates were clarified by centrifugation (12,000 g for 15 minutes at 4° C.), and total and phosphorylated Akt/PBK were determined by Western blot analysis.

Cc1ccccc1-n1c(C(C)Nc2nc(N)nc3nc[nH]c23)nc2cccc(C)c2c1=O (stereo not shown) [CAL-130]
TCR induced Akt phosphorylation (Ser473): prevented
